# Results: US12433876B2, “Septin inhibitors for treatment of cancers” (UNIVERSITY OF ROCHESTER, priority 2019, dated 2025)
# Experiments:
# septin-2 = target: T1, septin-2 (Homo sapiens, UniProt Q15019); test: Immunoblot of septin-2 expression; type: cell-based; conditions: 48 hours
# T1 sequence (Q15019 1-361): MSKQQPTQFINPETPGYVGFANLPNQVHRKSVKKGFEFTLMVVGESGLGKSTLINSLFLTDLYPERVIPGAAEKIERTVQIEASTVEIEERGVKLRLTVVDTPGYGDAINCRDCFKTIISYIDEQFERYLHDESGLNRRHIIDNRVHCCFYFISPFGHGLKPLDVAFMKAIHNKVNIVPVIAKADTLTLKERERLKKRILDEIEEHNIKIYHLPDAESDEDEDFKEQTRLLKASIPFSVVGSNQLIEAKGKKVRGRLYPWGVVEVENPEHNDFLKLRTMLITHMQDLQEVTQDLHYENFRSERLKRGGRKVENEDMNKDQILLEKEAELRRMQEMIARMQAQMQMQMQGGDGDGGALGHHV
# HER2+ PANC-1 xenograft = test: PANC-1 xenograft tumor growth; type: in vivo, NSG mice; conditions: 25 mg/kg IP, 52 days; p<0.0001
# Text: Cell Cycle Protein Expression. Cell Cycle Antibody Array (FullMoon BioSystems Inc, catalogue number: ACC:058), a high throughput ELISA based antibody array, designed for qualitative/semi-quantitative protein expression profiling was employed to investigate the protein changes after drug treatment. PANC-1 cells were lysed in buffer containing protease and phosphatase inhibitors (Cell Signaling, catalog number: 9803S). Total protein content was quantified by Bradford assay and equal amounts of proteins were analyzed in duplicate with arrays containing 4 to 6 spots for each of 60 probes (ACC058, Cell Cycle Antibody Array; Full Moon Biosystems, Sunnyvale, Calif.), according to manufacturer's instructions. After background correction, mean signal intensities were measured using FullMoon Inc's imaging services. Protein expressions in both the naïve and 328 treatment group was normalized to GAPDH signals. Confocal Analysis of Septin Disarrangement. To determine the impact of UR214-9 treatment on Septin-2 structure in cells, PANC-1 or JIMT-1 cells were seeded on glass slides and allowed to adhere overnight. The media was replaced with complete DMEM media supplemented with DMSO or UR214-9 (1 μM and 70 nM) and cells were incubated for 48 hours. […] The cells were stained with fluorescence linked secondary antibody for 1 hr under dark. […] Five cells were outlined and analyzed per field. […]
# SKOV-3 xenograft tumors = test: SKOV-3 xenograft tumor growth; type: in vivo, NSG mice
# Method: NSG mice 356 were implanted in their left flank with 1 million PANC-1 (HER2+, n=12), JIMT1 (number of animals=10) and SKOV-3 (number of animals=10) cells each in matrigel:media (1:1). […] The vehicle formulation was: 40% Hydroxypropyl-beta-cyclodextrin [Acros Organics] & solutol HS15 (Sigma] in sterile water). 25 mg/kg equivalent of UR214-9 (1 uL=200 ug in DMSO) was dissolved in 600 uL PBS+400 uL of the vehicle and vortexed to obtain a clear suspension.
# JIMT-1 cells = test: Cell cycle analysis (PI, flow cytometry), JIMT-1; type: cell-based; conditions: JIMT-1, 3 μM
# Method: For cell cycle analysis, BXPC-3 and PANC-1 and JIMT-1 cells (100,000/well) were seeded overnight in a 6 well dishes and allowed to adhere overnight. Media was replaced with fresh complete medium supplemented with DMSO or UR214-9 (100 nM and 3 μM) and cells were incubated for 72 hours. The media containing the drugs was removed and cells were washed twice with PBS and trypsinized gently. The cells were collected in 15 mL tubes, complete DMEM media was added to block trypsin and cells were centrifuged. The supernatants were removed and cells were gently treated with 70% cold-EtOH for 30 minutes. The fixed cells were centrifuged and the pellets obtained were collected in flow cytometry tubes and stained with preformulated PI/RNase solution (Cell Signaling Technology, catalog number: 4087s) for 30 minutes. The PI content was analyzed using a flow cytometer. Data was processed using Flowjo software.
smiles,measurement,setting,value
O=C(Nc1cc(Cl)nc(Cl)c1)Nc1cccc(SC(F)(F)F)c1F [UR214-9],septin-2 protein expression levels (western blot),"septin-2; MDA-MB-231, JIMT-1 and MCF-7 cells, 10 and 30 μM",does not alter the protein expression levels
same,septin-2 expression (immunoblot),"septin-2; PANC-1, 1.0 and 10.0 μM",unaffected
same,xenograft tumor growth,HER2+ PANC-1 xenograft,significantly delayed growth
same,tumor growth during treatment,"SKOV-3 xenograft tumors; UR214-9 25 mg/kg, M-F, I.P., trastuzumab 10 mg/kg, M",controlled the growth of tumors
same,weight of extracted tumors,SKOV-3 xenograft tumors; day 53 since inoculation,matched the average size seen in vehicle group
same,tumor size after treatments were stopped,SKOV-3 xenograft tumors; treatment stopped on day 27,reached the average size in control
same,cell cycle distribution,JIMT-1 cells,G1 phase arrest
